Activity calls are given as the source filed them.
Key:
HEK293 = test: cells; settings: Homo sapiens;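 also: cells exposed to compound for 14 hours overnight before viability readout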
Tumor necrosis factor = Tumor necrosis factor (Homo sapiens, UniProt P01375); test: TNFa-triggered NF-kB activation inhibitors, SAR follow-up, cell-based, revised (AID 2337); format: functional
Streptokinase A = target: T1, Streptokinase A (Streptococcus pyogenes serotype M1, UniProt P10520); test: S. pyogenes streptokinase expression inhibitors, potency, dose response, plasminogen activation absorbance, OD405 (AID 1914); format: functional, Streptococcus pyogenes M1 GAS;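 also: secreted streptokinase activity via plasminogen activation per viability signal from cell pellet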
T1 sequence (P10520 whole entry): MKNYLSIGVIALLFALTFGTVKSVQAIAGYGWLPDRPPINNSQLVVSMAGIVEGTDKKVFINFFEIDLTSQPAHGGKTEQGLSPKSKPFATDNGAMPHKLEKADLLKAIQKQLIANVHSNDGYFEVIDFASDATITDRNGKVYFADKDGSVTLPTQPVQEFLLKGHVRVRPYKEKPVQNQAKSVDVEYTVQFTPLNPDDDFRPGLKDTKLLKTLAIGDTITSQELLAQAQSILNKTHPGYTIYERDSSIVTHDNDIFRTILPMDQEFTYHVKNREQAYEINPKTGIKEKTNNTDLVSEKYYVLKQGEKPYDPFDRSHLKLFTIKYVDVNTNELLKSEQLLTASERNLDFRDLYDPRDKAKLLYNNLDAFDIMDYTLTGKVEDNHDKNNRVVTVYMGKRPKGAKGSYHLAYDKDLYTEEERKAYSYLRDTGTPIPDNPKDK

[1] = Luminescence Cell-Based Dose Retest to Confirm Inhibitors of Cancer Stem Cells. [Related pubchem assays (depositor defined):AID2717, AID2721]; format: functional; settings: Homo sapiens
[2] = target: T2, Kappa-type opioid receptor (Homo sapiens, UniProt P41145); test: kappa opioid receptor blockers, cell-based, luminescence, beta-arrestin, SAR follow-up (AID 2285); format: functional
T2 sequence (P41145 whole entry): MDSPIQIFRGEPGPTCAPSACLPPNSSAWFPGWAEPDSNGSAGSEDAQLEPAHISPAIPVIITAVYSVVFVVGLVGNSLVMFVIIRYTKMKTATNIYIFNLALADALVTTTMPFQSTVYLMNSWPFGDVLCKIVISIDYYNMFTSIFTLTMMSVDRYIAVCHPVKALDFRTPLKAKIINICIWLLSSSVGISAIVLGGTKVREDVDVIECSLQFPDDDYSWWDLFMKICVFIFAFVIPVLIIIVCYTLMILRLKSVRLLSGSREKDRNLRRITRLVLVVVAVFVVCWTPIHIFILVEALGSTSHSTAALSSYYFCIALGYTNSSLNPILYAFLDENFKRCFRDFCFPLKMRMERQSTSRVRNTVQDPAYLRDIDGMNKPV

[3] = target: Dual specificity protein phosphatase 3 (Homo sapiens, UniProt P51452); test: SAR VHR1 Fluorescent Assay for In Vitro dose response studies Set 2. [Related pubchem assays (depositor defined):AID1654, AID1661, AID1878]; format: functional
Chain of Dual specificity protein phosphatase 3 (P51452 whole entry): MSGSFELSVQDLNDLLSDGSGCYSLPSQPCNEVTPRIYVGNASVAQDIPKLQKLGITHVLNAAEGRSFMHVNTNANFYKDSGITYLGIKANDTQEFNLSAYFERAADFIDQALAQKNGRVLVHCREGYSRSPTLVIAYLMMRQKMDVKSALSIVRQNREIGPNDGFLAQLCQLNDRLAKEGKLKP

Mu-type opioid receptor [4] = target: T3, Mu-type opioid receptor (Homo sapiens, UniProt P35372); test: MOR agonists by imaging, SAR follow-up, image-based (AID 2352); format: functional
T3 sequence (P35372 whole entry, the tested form may be a part): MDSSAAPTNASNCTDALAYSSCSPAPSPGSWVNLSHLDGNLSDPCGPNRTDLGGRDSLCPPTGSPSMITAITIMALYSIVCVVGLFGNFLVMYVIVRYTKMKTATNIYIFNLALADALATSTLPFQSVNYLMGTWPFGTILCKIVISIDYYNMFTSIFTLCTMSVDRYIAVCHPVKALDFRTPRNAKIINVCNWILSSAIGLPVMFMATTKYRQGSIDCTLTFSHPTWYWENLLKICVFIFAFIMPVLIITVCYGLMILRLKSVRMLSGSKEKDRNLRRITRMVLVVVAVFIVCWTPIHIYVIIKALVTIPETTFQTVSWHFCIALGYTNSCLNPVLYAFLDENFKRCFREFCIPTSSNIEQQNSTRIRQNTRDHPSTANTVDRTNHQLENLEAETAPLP

[5] = target: Disintegrin and metalloproteinase domain-containing protein 17 (Homo sapiens, UniProt P78536); test: ADAM17 protease inhibitors, dose response, counter-screen for ADAM10 exosite inhibitor project, biochemical, quenched FRET substrate (AID 743253)
Chain of Disintegrin and metalloproteinase domain-containing protein 17 (P78536 whole entry, the tested form may be a part): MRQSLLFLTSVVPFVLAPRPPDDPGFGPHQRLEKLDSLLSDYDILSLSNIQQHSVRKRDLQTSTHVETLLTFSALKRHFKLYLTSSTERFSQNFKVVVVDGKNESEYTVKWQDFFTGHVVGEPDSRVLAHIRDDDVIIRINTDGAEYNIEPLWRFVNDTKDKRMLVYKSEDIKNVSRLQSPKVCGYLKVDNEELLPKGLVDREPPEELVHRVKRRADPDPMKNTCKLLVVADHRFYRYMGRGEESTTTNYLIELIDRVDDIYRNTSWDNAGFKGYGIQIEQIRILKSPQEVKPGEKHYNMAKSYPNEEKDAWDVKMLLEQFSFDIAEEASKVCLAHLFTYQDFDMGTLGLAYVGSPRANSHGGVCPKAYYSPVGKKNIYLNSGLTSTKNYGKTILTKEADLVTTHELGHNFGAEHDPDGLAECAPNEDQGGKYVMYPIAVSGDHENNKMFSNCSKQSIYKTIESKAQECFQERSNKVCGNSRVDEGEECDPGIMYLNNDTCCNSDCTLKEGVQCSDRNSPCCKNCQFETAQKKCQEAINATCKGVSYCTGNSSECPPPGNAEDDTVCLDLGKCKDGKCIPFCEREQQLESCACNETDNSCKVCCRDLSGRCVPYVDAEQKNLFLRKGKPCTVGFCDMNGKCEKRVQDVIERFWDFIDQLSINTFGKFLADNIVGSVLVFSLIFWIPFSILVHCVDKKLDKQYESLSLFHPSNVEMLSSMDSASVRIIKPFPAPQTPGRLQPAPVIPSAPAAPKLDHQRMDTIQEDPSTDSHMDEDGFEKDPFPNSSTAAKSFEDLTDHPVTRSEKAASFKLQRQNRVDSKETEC

[6] = ADAM10 inhibitors, peptide cleavage, dose response, biochemical, QFRET (AID 743254);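 also: ADAM10 enzyme with the DM2 quenched FRET peptide as substrate; EDANS fluorescence gain as the protease cuts the substrate; inhibitor potency against ADAM10 proteolytic activity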
[7] = growth suppression of beta-catenin-knockout colon cells, dose response, cell-based, HCT116, human colon tumor (AID 1045); format: functional;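 also: HCT116 colon tumor cells with beta catenin knocked out; cells exposed to compound for 60 hours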
[8] = target: T4, Delta-type opioid receptor (Homo sapiens, UniProt P41143); test: DOR agonists, SAR follow-up, image-based (AID 2370); format: functional
T4 sequence (P41143 whole entry): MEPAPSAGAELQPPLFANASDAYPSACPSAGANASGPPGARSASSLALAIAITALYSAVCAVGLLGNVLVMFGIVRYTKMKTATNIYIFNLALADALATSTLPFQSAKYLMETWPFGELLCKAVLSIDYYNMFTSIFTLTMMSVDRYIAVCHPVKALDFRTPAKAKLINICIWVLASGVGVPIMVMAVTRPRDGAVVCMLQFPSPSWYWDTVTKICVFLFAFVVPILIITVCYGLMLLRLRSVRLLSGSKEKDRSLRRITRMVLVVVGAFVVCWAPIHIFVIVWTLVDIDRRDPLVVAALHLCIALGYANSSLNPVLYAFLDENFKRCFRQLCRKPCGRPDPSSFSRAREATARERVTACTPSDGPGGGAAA

[9] = growth suppression of PTEN-null colon cells, dose response, cell-based, HCT116 PTEN knockout (AID 1047); format: functional;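 also: HCT116 colon tumor cells with PTEN knocked out; cells exposed to compound for 60 hours before readout; potency for loss of cell viability measured by luminescence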
Streptococcus = test: Group A Streptococcus viability loss, dose response, counter-screen for streptokinase expression inhibitor project, luminescence, BacTiterGlo (AID 1915); format: functional, organism-based;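 also: potency for reduction of bacterial viability or growth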
[10] = test system: Streptococcus sp. 'group A'; test: growth inhibition of control SK(-) GAS strain, dose response, counter-screen for streptokinase expression inhibitor project, luminescence, kanamycin, BacTiterGlo, confirmation (AID 1900); format: functional, organism-based
Mu-type opioid receptor [11] = target: T3, Mu-type opioid receptor; test: MOR antagonists, SAR follow-up, image-based (AID 2420); format: functional;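 also: compounds added before stimulation of receptor with agonist DAMGO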
[12] = target: T5, Tyrosine-protein phosphatase non-receptor type 7 (Homo sapiens, UniProt P35236); test: SAR analysis of chemical inhibitors of HePTP using a Fluorescent assay - Set 2. [Related pubchem assays (depositor defined):AID1059, AID1077, AID1661, AID2085, AID521]; format: functional
T5 sequence (P35236 whole entry): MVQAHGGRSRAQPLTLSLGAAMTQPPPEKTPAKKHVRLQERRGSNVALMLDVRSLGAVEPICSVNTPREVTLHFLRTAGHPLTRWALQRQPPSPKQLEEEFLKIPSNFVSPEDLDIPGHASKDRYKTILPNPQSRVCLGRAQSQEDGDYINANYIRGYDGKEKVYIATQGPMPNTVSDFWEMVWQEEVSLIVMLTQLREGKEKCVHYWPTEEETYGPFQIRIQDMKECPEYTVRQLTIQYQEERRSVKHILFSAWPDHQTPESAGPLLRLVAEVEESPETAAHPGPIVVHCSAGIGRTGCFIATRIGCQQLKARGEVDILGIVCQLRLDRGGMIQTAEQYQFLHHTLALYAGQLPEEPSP

[13] = target: T4, Delta-type opioid receptor; test: DOR antagonists, SAR follow-up, image-based (AID 2357); format: functional
[14] = target: T2, Kappa-type opioid receptor; test: KOR agonist analogs, imaging readout, SAR follow-up, image-based (AID 2359); format: functional
[15] = target: T2, Kappa-type opioid receptor; test: KOR antagonists by imaging, SAR follow-up, image-based (AID 2348); format: functional
[16] = target: T2, Kappa-type opioid receptor; format: functional
Mu-type opioid receptor [17] = target: T3, Mu-type opioid receptor; test: HTS Image-Based Screen for Agonists of the MOR Receptor. [Related pubchem assays (depositor defined):AID1777, AID1785, AID1786, AID2133]; format: functional
[18] = target: T2, Kappa-type opioid receptor; format: functional; remark: listed apart in the source
Beta-galactosidase = Beta-galactosidase (Escherichia coli, UniProt Q8VNN2); format: functional
Chain of Beta-galactosidase (Q8VNN2 whole entry): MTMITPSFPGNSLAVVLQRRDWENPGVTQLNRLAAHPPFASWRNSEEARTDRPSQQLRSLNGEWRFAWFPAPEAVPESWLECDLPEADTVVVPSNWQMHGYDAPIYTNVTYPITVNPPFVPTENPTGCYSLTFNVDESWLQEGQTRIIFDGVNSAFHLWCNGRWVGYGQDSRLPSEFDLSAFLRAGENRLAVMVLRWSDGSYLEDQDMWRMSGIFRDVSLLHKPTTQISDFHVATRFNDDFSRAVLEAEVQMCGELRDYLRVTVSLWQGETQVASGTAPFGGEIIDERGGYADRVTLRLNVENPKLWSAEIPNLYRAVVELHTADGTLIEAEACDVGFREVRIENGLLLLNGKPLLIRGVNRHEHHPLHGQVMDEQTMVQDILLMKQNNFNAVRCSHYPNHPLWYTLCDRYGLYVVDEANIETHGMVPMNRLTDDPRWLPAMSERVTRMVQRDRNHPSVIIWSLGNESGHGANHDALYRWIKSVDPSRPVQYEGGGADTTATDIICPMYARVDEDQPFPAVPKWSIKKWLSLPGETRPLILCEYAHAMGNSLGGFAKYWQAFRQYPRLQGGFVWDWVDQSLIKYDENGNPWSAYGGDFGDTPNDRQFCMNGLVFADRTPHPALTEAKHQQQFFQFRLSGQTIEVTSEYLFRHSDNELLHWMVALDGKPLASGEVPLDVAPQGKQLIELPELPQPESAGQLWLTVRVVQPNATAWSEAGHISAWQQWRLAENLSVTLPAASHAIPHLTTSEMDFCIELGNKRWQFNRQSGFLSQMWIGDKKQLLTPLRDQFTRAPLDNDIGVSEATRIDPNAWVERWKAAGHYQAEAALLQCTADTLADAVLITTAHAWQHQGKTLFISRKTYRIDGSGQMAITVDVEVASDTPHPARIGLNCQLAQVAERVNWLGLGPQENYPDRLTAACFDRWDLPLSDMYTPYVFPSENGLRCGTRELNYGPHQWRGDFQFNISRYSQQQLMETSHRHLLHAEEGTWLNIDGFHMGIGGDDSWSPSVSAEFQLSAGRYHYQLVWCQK

[19] = target: T4, Delta-type opioid receptor; test: HTS Image-Based Screen for Antagonists of the DOR Receptor. [Related pubchem assays (depositor defined):AID1777, AID1785, AID1786, AID2133]; format: functional
[20] = target: T4, Delta-type opioid receptor; test: HTS Image-Based Screen for Agonists of the DOR Receptor. [Related pubchem assays (depositor defined):AID1777, AID1786, AID2133]; format: functional
SUMO-activating enzyme = SUMO-activating enzyme (Homo sapiens, UniProt Q9UBT2); test: SUMOylation inhibitor hit validation, confirmation, SUMOylation inhibitor project, biochemical, AlphaScreen (AID 2018); format: functional
Cannabinoid receptor 2 [21] = target: T6, Cannabinoid receptor 2 (Homo sapiens, UniProt P34972); test: SAR analysis of agonists of the Cannabinoid Receptor 2 using an Image-Based Assay - Set 2. [Related pubchem assays (depositor defined):AID1961, AID1965]; format: functional
T6 sequence (P34972 whole entry): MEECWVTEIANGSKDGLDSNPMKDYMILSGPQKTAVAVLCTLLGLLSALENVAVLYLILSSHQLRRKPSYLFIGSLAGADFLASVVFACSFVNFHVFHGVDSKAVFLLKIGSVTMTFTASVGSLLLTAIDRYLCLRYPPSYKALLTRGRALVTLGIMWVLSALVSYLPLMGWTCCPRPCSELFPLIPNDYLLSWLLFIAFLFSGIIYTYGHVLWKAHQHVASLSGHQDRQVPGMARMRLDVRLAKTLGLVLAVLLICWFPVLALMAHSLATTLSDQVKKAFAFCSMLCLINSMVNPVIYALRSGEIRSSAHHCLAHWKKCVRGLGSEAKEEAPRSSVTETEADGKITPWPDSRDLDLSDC

[22] = target: T7, G-protein coupled receptor 55 (Homo sapiens, UniProt Q9Y2T6); test: GPR55 agonists via beta-arrestin recruitment, primary screen, imaging, U2OS cells, beta-arrestin-GFP redistribution (AID 1961); format: functional
T7 sequence (Q9Y2T6 whole entry): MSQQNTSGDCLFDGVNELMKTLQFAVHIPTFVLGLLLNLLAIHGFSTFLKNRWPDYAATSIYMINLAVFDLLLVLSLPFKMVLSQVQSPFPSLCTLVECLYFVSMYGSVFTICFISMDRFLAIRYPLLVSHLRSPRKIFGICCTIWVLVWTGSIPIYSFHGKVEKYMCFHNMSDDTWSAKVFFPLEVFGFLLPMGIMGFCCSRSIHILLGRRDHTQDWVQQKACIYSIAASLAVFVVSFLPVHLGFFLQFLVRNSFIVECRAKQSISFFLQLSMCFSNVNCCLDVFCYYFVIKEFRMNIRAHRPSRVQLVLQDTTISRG

Cannabinoid receptor 1 = Cannabinoid receptor 1 (Homo sapiens, UniProt P21554); test: SAR analysis of antagonists of the Cannabinoid Receptor 1 using an Image-Based Assay. [Related pubchem assays (depositor defined):AID1961, AID1965]; format: functional
Chain of Cannabinoid receptor 1 (P21554 whole entry): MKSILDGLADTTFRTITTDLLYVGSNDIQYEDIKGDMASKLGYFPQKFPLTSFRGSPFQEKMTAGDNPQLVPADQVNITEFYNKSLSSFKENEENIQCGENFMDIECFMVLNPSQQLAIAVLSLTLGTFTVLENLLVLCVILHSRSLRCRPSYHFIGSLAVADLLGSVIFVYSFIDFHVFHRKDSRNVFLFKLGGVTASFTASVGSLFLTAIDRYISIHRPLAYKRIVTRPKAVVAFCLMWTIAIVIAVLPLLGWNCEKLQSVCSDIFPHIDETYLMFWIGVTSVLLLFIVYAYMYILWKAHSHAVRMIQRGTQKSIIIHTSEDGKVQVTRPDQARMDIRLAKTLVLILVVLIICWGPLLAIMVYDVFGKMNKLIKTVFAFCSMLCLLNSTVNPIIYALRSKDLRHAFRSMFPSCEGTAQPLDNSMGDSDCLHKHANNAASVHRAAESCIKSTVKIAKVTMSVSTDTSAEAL

Cannabinoid receptor 2 [23] = target: T6, Cannabinoid receptor 2; test: SAR analysis of antagonists of the Cannabinoid Receptor 2 using an Image-Based Assay - Set 2. [Related pubchem assays (depositor defined):AID1961, AID1965]; format: functional
[24] = target: T7, G-protein coupled receptor 55; test: SAR analysis of selective Agonists of GPR55 using an Image-Based Assay. [Related pubchem assays (depositor defined):AID1961, AID1965]; format: functional
[25] = target: Intestinal-type alkaline phosphatase (Homo sapiens, UniProt P09923); test: inhibition of human intestinal alkaline phosphatase – biochemical, dose response (AID 488876); format: functional
Chain of Intestinal-type alkaline phosphatase (Homo sapiens, UniProt P09923) (P09923 whole entry): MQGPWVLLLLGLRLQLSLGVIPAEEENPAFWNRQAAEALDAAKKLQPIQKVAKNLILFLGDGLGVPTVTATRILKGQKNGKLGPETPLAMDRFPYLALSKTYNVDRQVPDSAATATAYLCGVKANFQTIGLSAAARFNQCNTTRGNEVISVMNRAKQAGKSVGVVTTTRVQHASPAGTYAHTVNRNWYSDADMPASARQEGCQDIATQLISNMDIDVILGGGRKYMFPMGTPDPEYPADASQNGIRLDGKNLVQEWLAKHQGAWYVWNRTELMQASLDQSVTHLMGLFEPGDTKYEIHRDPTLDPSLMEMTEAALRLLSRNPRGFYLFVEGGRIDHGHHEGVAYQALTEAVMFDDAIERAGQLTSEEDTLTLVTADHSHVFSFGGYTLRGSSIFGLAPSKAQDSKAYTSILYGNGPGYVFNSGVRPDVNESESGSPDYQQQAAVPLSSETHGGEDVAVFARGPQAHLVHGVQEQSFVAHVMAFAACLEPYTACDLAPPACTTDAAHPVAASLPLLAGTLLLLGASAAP

[26] = target: Intestinal-type alkaline phosphatase (Mus musculus, UniProt P24822); test: PubChem AID 488785; format: functional
[27] = target: T8, Alkaline phosphatase, tissue-nonspecific isozyme (Homo sapiens, UniProt P05186); test: TNAP enzyme activators, dose response, selectivity assay for mouse IAP activator project, biochemical, TNAP isozyme, mouse IAP uHTS hits (AID 488880); format: functional
T8 sequence (P05186 whole entry): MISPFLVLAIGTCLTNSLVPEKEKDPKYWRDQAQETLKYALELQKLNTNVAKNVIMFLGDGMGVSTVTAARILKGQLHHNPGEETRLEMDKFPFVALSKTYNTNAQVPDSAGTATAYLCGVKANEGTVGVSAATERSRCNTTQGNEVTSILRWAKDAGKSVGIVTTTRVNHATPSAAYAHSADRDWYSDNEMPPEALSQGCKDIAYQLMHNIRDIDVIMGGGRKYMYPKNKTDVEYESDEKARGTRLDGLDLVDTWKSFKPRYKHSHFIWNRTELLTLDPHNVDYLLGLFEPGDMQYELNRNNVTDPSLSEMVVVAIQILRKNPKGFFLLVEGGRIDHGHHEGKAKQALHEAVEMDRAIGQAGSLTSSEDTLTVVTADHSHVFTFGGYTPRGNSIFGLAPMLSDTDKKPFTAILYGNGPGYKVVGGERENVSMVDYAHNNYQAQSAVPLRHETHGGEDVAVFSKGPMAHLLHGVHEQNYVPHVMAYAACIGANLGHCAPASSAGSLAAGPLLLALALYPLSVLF
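For AC50 in this document: cells exposed to compound for roughly 70 hours or longer before luminescence read.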

CC(=O)c1ccc(N2CCN(S(=O)(=O)c3ccc4c(c3)CCN4C(=O)C3CC3)CC2)cc1
IC50 (HEK293): > 20 µM (inactive) | IC50 (Tumor necrosis factor): 16.6 µM (active)

O=C(NC(NC(=S)Nc1cccc(Cl)c1)C(Cl)(Cl)Cl)OCc1ccccc1 (centres undefined)
EC50 (Streptokinase A): 3.92 µM (active) | AC50 [1]: 1.53 µM (active) | IC50 [2]: > 10 µM (inactive) | IC50 [3]: > 100 µM (inactive) | EC50 (Mu-type opioid receptor [4]): > 32 µM (inactive) | IC50 [5]: > 69.5 µM (inactive) | IC50 [6]: > 7.72 µM (active) | EC50 [7]: 19.6 µM (active) | EC50 [8]: > 32 µM (inactive) | EC50 [9]: 19.7 µM (active) | EC50 (Streptococcus): 5.92 µM (active) | EC50 [10]: 3.59 µM (active) | IC50 (Mu-type opioid receptor [11]): > 32 µM (inactive) | IC50 [12]: 87 µM (active) | IC50 [13]: 24.4 µM (inactive) | EC50 [14]: > 32 µM (inactive) | IC50 [15]: 12.3 µM (inactive)

Cc1cn(-c2cc(NC(=O)c3ccc(C)c(NC(=O)c4cccc(-c5cnnc(O)c5)c4)c3)cc(C(F)(F)F)c2)cn1
IC50 [16]: 5.1 µM | EC50 (Mu-type opioid receptor [17]): > 32 µM (inactive) | IC50 [18]: 9.01 µM (active) | EC50 (Beta-galactosidase): > 31.5 µM (inactive) | IC50 [19]: > 32 µM (inactive) | EC50 [20]: > 32 µM (inactive)

CCCCCn1c(N)c(C#N)c2nc3ccccc3nc21
IC50 (SUMO-activating enzyme): 15.7 µM (active)

Cc1cccc(N2CCN(C(=O)c3cc(S(=O)(=O)N(C)C)ccc3N3CCCC3)CC2)c1C
EC50 (Cannabinoid receptor 2 [21]): > 32 µM (inactive) | EC50 [22]: 0.508 µM (active) | IC50 (Cannabinoid receptor 1): 21.7 µM (inactive) | IC50 (Cannabinoid receptor 2 [23]): 15.1 µM (inactive) | EC50 [24]: 0.263 µM (active)

N#Cc1cccc(NC(=O)CCNS(=O)(=O)c2ccc3nc(O)oc3c2)c1
IC50 [25]: > 100 µM (inactive) | IC50 [26]: 21.7 µM (active) | EC50 [27]: > 100 µM (inactive)

— ChEMBL document CHEMBL1201862, “PubChem BioAssay data set” (2004)
